Experimental findings from patent publication US5395757A, “Method for the hydrolysis of sugar compounds and reagent therefor” (Takara Shuzo Co., Ltd., priority 1991, dated 1995) are described below.

The first assay deals with lacto-N-biosidase and α-1,3/4 fucosidase. Nature of the assay: Digestion with a mixture of lacto-N-biosidase and α-1,3/4 fucosidase. Type of assay: biochemical. Particulars: lacto-N-biosidase plus α-1,3/4 fucosidase. The text has this:
The method and the reagent of this invention can be used in studies done to identify type 1 structures in glycoconjugates, to distinguish type 1 oligosaccharides from type 2 oligosaccharides, and to elucidate the functions of lacto-N-biosyl residues in glycoconjugates. In particular, with its use, the Le^a structure can be easily distinguished from the Le^x structure by use of lacto-N-biosidase and α-1,3/4 fucosidase (Ogata-Arakawa et al., Arch. Biochem. Biophys. 181, 353, 1977; Scudder et al., J. Biol. Chem. 265, 16472, 1990; Sano et al., J. Biol. Chem. 267, 1522, 1992).
In the case of `CC(=O)N[C@H]1[C@H](O[C@H]2[C@@H](O)[C@@H](CO)O[C@@H](O[C@@H]([C@H](O)[C@@H](O)CNc3ccccn3)[C@H](O)CO)[C@@H]2O)O[C@H](CO)[C@@H](O[C@@H]2O[C@@H](C)[C@@H](O)[C@@H](O)[C@@H]2O)[C@@H]1O[C@@H]1O[C@H](CO)[C@H](O)[C@H](O)[C@H]1O` [PA-lacto-N-fucopentaose II], the “product obtained on treatment with the mixture of the two enzymes” value was “PA-lactose was obtained”. On the same count and under the same terms, in the case of `CC(=O)N[C@H]1[C@H](O[C@H]2[C@@H](O)[C@@H](CO)O[C@@H](O[C@@H]([C@H](O)[C@@H](O)CNc3ccccn3)[C@H](O)CO)[C@@H]2O)O[C@H](CO)[C@@H](O[C@@H]2O[C@H](CO)[C@H](O)[C@H](O)[C@H]2O)[C@@H]1O[C@@H]1O[C@@H](C)[C@@H](O)[C@@H](O)[C@@H]1O` [PA-lacto-N-fucopentaose III] it was “PA-lacto-N-neotetraose was obtained”.

The test system of a further assay is lacto-N-biosidase. Briefly: Structural analysis of reaction products of lacto-N-biosidase (Example 3). Type of assay: biochemical, Streptomyces sp 142. Particulars: about 100 nmol substrate, 0.6 mU enzyme, 60 h at 37° C., pH 6.0. The procedure: To elucidate the reaction products of lacto-N-biosidase obtained by the method of example 1, the structures of the enzyme reaction products were analyzed in detail with the PA-oligosaccharide shown as formula VI below as the substrate. PA-oligosaccharide described by formula VI (about 100 nmol; Takara Shuzo Co.) mixed with lacto-N-biosidase (total, 0.6 mU) prepared as described in example 1 was digested for 60 h at 37° C. in a final volume of 360 μl containing 0.1M potassium phosphate buffer, pH 6.0. The reaction mixture was pyridylaminated by the method described in U.S. Pat. No. 4,975,533 and analyzed by HPLC with an amino-silica column. There were two peaks of PA-oligosaccharides: fractions 1 and 2. The elution position of fraction 1 was the same as that of the PA-oligosaccharide described by formula VII, and the elution position of fraction 2 was the same as that of PA-oligosaccharide described by formula VIII below. The amounts of these two products, calculated from the peak areas of fractions 1 and 2 , were identical to that of the PA-oligosaccharide substrate of formula VI.
Turning to `CC(=O)N[C@H]1[C@H](O[C@@H]([C@H](O)[C@H](CNc2ccccn2)NC(C)=O)[C@H](O)CO)O[C@H](CO)[C@@H](O[C@@H]2O[C@H](CO[C@H]3O[C@H](CO)[C@@H](O)[C@H](O)[C@@H]3O[C@@H]3O[C@H](CO)[C@@H](O[C@@H]4O[C@H](CO)[C@H](O)[C@H](O)[C@H]4O)[C@H](O)[C@H]3NC(C)=O)[C@@H](O)[C@H](O[C@H]3O[C@H](CO)[C@@H](O[C@@H]4O[C@H](CO)[C@@H](O)[C@H](O[C@@H]5O[C@H](CO)[C@H](O)[C@H](O)[C@H]5O)[C@H]4NC(C)=O)[C@H](O)[C@@H]3O[C@@H]3O[C@H](CO)[C@@H](O[C@@H]4O[C@H](CO)[C@H](O)[C@H](O)[C@H]4O)[C@H](O)[C@H]3NC(C)=O)[C@@H]2O)[C@@H]1O` [formula VI], the “linkage cleaved by the enzyme reaction” value is “only lacto-N-biosidic linkage in the substrate was cleaved”.

The next assay relates to lacto-N-biosidase. Briefly: Substrate specificity of lacto-N-biosidase (hydrolysis of oligosaccharides, HPLC). The class given is biochemical, Streptomyces sp 142.
Conditions: not given
The procedure:
Lacto-N-biosidase was assayed by being incubated for 20 min with the compound described by formula II below at the concentration of 2 μM at 37° C. in 10 μl of 100 mM potassium phosphate buffer, pH 6.0.
wherein PA represents a pyridylamino residue. […] Then 40 μl of 1% trifluoroacetic acid was added to the reaction mixture to stop the reaction. A portion containing 10 pmol of PA-oligosaccharides was then analyzed by HPLC with an amino-silica column (Palpak Type N column, 4.6×250 mm, Takara Shuzo), and detected by fluorescence with the excitation and emission wavelengths of 310 and 380 nm, respectively. Elution was at the flow rate of 1.0 ml/min at 40° C. with a 70:30 (v/v) mixture of acetonitrile and 0.2M triethylamine acetate buffer, pH 7.3. The degree of hydrolysis was calculated from the peak areas of the substrate and the product, PA-lactose, in comparison with the peak area of the corresponding standard PA-oligosaccharide. One unit of activity was defined as the amount of enzyme needed to release 1 μmol of PA-lactose per minute under the conditions described above.
As for `CC(=O)N[C@H]1[C@H](Oc2ccc([N+](=O)[O-])cc2)O[C@H](CO)[C@@H](O)[C@@H]1O[C@@H]1O[C@H](CO)[C@H](O)[C@H](O)[C@H]1O` [formula V, Galβ1--3GlcNAcβ1--p--nitrophenol], the “products of hydrolysis by lacto-N-biosidase” value is “lacto-N-biose and p-nitrophenol”. As to `CC(=O)N[C@H]1[C@H](O[C@@H]([C@H](O)[C@H](CNc2ccccn2)NC(C)=O)[C@H](O)CO)O[C@H](CO)[C@@H](O[C@@H]2O[C@H](CO[C@H]3O[C@H](CO)[C@@H](O)[C@H](O)[C@@H]3O[C@@H]3O[C@H](CO)[C@@H](O[C@@H]4O[C@H](CO)[C@H](O)[C@H](O)[C@H]4O)[C@H](O)[C@H]3NC(C)=O)[C@@H](O)[C@H](O[C@H]3O[C@H](CO)[C@@H](O[C@@H]4O[C@H](CO)[C@@H](O)[C@H](O[C@@H]5O[C@H](CO)[C@H](O)[C@H](O)[C@H]5O)[C@H]4NC(C)=O)[C@H](O)[C@@H]3O[C@@H]3O[C@H](CO)[C@@H](O[C@@H]4O[C@H](CO)[C@H](O)[C@H](O)[C@H]4O)[C@H](O)[C@H]3NC(C)=O)[C@@H]2O)[C@@H]1O` [formula III], the “products of hydrolysis by lacto-N-biosidase” value is “lacto-N-biose and the N-acetyllactosamine type of biantennary sugar chain”.

Staying with this assay, now noted: oligosaccharides labelled with 2-aminopyridine.
Turning to `CC(=O)N[C@H]1[C@H](O[C@H]2[C@@H](O)[C@@H](CO)O[C@@H](O[C@@H]([C@H](O)[C@@H](O)CNc3ccccn3)[C@H](O)CO)[C@@H]2O)O[C@H](CO)[C@@H](O[C@@H]2O[C@H](CO)[C@H](O)[C@H](O)[C@H]2O)[C@@H]1O`, the “hydrolysis by lacto-N-biosidase” value is “did not hydrolyze”. On the same count and under the same terms, as for sialyl lacto-N-tetraose, the entry is “did not hydrolyze”. Still for that read-out and setting: in the case of poly-N-acetyllactosamine it was “did not hydrolyze”.

`CC(=O)N[C@H]1[C@H](O[C@@H]2[C@H](O)[C@@H](O)[C@H](O[C@@H]([C@H](O)[C@@H](O)CNc3ccccn3)[C@H](O)CO)O[C@@H]2CO)O[C@H](CO)[C@H](O)[C@@H]1O[C@@H]1O[C@H](CO)[C@H](O)[C@H](O)[C@H]1O` [asialo GM1 tetrasaccharide]: the “hydrolysis by lacto-N-biosidase” value is on record as “did not hydrolyze”.

For the compound `CC(=O)N[C@H]1[C@H](O[C@H]2[C@@H](O)[C@@H](CO)O[C@@H](O[C@H]3[C@H](O)[C@@H](O)C(O)O[C@@H]3CO)[C@@H]2O)O[C@H](CO)[C@@H](O)[C@@H]1O` (stereo partly drawn) [lacto-N-triose], the “hydrolysis by lacto-N-biosidase” value is “did not hydrolyze”. Same read-out and setting: in the case of `CC(=O)N[C@H]1[C@H](O[C@H]2[C@@H](O)[C@@H](CO)O[C@@H](O[C@@H]([C@H](O)[C@@H](O)CNc3ccccn3)[C@H](O)CO)[C@@H]2O)O[C@H](CO)[C@@H](O)[C@@H]1O[C@@H]1O[C@H](CO)[C@H](O)[C@H](O)[C@H]1O` it was “specifically hydrolyzed”; in that of `CC(=O)N[C@H]1[C@H](O[C@H]2[C@@H](O)[C@@H](CO)O[C@@H](O[C@@H]([C@H](O)[C@@H](O)CNc3ccccn3)[C@H](O)CO)[C@@H]2O)O[C@H](CO)[C@@H](O)[C@@H]1O[C@@H]1O[C@H](CO)[C@H](O)[C@H](O)[C@H]1O[C@@H]1O[C@@H](C)[C@@H](O)[C@@H](O)[C@@H]1O`, “did not hydrolyze”.
